The results in this text go back to patent US20240398779A1, “USE OF FACTOR B INHIBITORS FOR THE TREATMENT OF AGE-RELATED MACULAR DEGENERATION” (priority 2021, published 2024).

SMILES strings stand for the structures.

In data set [1] the test system is AP activity. In words: Wieslab AP assay in MAD study. It is filed as in vivo, human. The note with it: for inhibition of AP activity (Wieslab AP assay): sustained over 14 days of dosing.
For data set [2], the system named is Bb. The data set can be described thus: Bb level in MAD study. The note with it: all iptacopan cohorts. The format is in vivo, human.
Data set [3] is described as follows: Clinical phase 2 studies in PNH, IgAN, C3G. The format is in vivo, human.
Data set [4] can be described thus: 39-week dog toxicity study, safety margins for human exposure. The note with it: 39-week dog study.
Data set [5] can be described thus: First in human study in healthy volunteers, single ascending dose (SAD) and multiple ascending dose (MAD).

`CCO[C@H]1CCN(Cc2c(OC)cc(C)c3[nH]ccc23)[C@H](c2ccc(C(=O)O)cc2)C1` [iptacopan]: the “inhibition of AP activity (Wieslab AP assay)” value in data set [1] (100 mg b.i.d.) and in data set [1] (200 mg b.i.d.) was at least 80% in each case. For the same compound, the “suppression of AP activity (Wieslab AP assay)” value in data set [1] (MAD study, 10 to 200 mg b.i.d. for 2 weeks) is “dose dependent suppression of AP activity”. In data set [2], the “Bb level decrease from the baseline” value is 30-40%. In data set [3] (200 mg b.i.d., all tested indications (PNH, IgAN, C3G)), the response rate entry was “highest response rate”. Moreover, the proteinuria result in data set [3] (IgAN study Part 1, 200 mg b.i.d., over 90 days) is listed as “reduce proteinuria”. Besides, the “unbound systemic exposure (AUC-based) at 200 mg b.i.d. below lowest exposure with off-target testicular effects (LOAEL)” value in data set [4] was 17.3 fold. Besides, the “deaths, SAEs, or AEs leading to study drug discontinuation” value in data set [5] (102 healthy volunteers, SAD and MAD) was “No deaths, SAEs, or AEs leading to study drug discontinuation were observed”. Besides, the permeability entry in data set [5] (first in human studies) was “good permeability”. Also, the solubility result in data set [5] (first in human studies) is recorded as “high solubility”.
